In US10774281B2, “Use of a particular carboxylic amino acid in order to limit the formation and/or agglomeration of gas hydrates” (Arkema France, priority 2015, dated 2020):

Legend:
[1] = Bioaccumulation, Log Pow according to OCDE 117 by HPLC; assay type: physicochemical
Procedure: (§1) According to OCDE test 306 (marine medium), the composition of the invention (B1), comprising a compound of formula (I), has a biodegradability of 70%, i.e. greater than 60%. […] Its Log Pow measured according to OCDE 117 by HPLC is 2.93<3. Its Algal ecotoxicity is 2 mg·L^−1.

[2] = Biodegradability in marine medium, OCDE test 306; details: in words
Procedure: as §1

Bioaccumulation, in words [1] | Biodegradability classification [2] | Substance
bioaccumulable | not biodegradable | di-tallow-hydrogenodimethylammonium chloride [Noramium® M2SH]
bioaccumulable | not biodegradable | dicocoyldimethylammonium chloride [Noramium® M2C]
